Experimental data reported in ChEMBL document CHEMBL4371033, “Highly Potent and Selective Plasmin Inhibitors Based on the Sunflower Trypsin Inhibitor-1 Scaffold Attenuate Fibrinolysis in Plasma” (J Med Chem, 2019).
Residues, ends and D or L forms follow the SMILES beside them.

Legend:
Coagulation factor XI = Coagulation factor XI (Homo sapiens, UniProt P03951); assay: Inhibition of activated beta-factor 11 (unknown origin) using Bz-FVRpNA as substrate after 30 mins relative to untreated control
Chain of Coagulation factor XI (P03951 19-387 limits assumed): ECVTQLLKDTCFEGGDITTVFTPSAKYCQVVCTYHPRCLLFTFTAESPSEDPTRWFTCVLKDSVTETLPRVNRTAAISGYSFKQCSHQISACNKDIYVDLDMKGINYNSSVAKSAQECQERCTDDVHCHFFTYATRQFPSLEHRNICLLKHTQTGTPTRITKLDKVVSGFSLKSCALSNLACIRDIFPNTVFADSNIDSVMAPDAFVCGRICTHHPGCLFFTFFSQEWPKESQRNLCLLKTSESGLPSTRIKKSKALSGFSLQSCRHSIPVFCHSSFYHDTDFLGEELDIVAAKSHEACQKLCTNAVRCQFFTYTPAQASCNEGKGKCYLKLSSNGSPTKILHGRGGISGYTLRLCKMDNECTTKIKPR
Chain of Coagulation factor XI (P03951 388-625 limits assumed): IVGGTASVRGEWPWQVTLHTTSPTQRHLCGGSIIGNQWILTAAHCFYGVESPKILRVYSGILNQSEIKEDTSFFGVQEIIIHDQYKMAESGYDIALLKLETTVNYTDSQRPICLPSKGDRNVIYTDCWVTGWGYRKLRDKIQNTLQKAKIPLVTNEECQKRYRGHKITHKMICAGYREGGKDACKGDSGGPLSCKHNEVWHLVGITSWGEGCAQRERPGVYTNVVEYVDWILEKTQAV

Homo sapiens [1] = species on record: Homo sapiens; assay: Selectivity index, ratio of IC50 for inhibition of uPA (unknown origin) to IC50 for Inhibition of human plasmin
Homo sapiens [2] = species on record: Homo sapiens; assay: Selectivity index, ratio of IC50 for inhibition of tPA (unknown origin) to IC50 for Inhibition of human plasmin
Cathepsin G = target: T1, Cathepsin G (Homo sapiens, UniProt P08311); assay: Inhibition of human cathepsin G using Suc-AAPF-MCA as substrate after 30 mins
T1 sequence (P08311 whole entry): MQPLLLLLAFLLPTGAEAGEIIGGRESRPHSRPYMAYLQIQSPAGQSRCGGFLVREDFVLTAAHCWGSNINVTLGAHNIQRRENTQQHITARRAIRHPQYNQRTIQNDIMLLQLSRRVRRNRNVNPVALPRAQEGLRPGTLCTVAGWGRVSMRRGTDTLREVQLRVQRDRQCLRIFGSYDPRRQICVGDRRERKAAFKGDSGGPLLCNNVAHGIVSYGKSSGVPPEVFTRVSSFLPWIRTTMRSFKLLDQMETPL

Homo sapiens [3] = species on record: Homo sapiens; assay: Selectivity index, ratio of IC50 for inhibition of human thrombin to IC50 for Inhibition of human plasmin
Homo sapiens [4] = species on record: Homo sapiens; assay: Selectivity index, ratio of IC50 for inhibition of activated beta-factor 9 (unknown origin) to IC50 for Inhibition of human plasmin
Plasminogen [5] = target: T2, Plasminogen (Homo sapiens, UniProt P00747); assay: Inhibition of human plasmin using Ac-RM(O2)YR-pNA as substrate after 30 mins
T2 sequence (P00747 97-580 limits assumed): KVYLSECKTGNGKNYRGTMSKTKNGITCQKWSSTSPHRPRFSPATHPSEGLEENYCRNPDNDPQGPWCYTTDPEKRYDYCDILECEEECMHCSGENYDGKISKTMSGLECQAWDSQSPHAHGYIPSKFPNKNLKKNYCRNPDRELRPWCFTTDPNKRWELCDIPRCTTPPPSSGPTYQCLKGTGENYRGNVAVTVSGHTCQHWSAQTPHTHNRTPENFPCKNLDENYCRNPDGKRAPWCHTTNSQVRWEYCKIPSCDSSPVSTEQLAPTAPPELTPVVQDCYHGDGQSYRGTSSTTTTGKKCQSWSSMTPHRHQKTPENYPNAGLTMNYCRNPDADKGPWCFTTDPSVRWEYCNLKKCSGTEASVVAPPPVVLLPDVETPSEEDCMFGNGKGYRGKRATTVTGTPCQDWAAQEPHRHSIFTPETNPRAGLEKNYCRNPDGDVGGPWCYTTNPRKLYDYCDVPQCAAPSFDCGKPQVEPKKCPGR
T2 sequence (P00747 581-810 limits assumed): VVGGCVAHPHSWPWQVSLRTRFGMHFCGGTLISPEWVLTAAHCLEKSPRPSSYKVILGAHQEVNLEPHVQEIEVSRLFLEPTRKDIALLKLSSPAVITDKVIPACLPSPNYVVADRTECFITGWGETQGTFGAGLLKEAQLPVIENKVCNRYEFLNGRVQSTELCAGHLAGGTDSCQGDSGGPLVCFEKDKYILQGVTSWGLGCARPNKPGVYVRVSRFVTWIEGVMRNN

Plasminogen [6] = target: T2, Plasminogen; assay: Inhibition of human plasmin assessed as association rate constant using Ac-RM(O2)YR-pNA as substrate after 30 mins
[7] = target: Urokinase-type plasminogen activator (Homo sapiens, UniProt P00749); assay: Inhibition of uPA (unknown origin) using Z-Pyr-Gly-Arg-MCA as substrate after 30 mins relative to untreated control

- Ki (Coagulation factor XI): > 50 µM
- Ratio IC50 (Homo sapiens [1]): > 1e+06
- Ratio IC50 (Homo sapiens [2]): > 1e+06
- Ki (Cathepsin G): 29 µM
- Ratio IC50 (Homo sapiens [3]): > 1e+06
- Ratio IC50 (Homo sapiens [4]): > 1e+06
- Ki (Plasminogen [5]): 0.051 nM
- K (Plasminogen [6]): 1.9 ×10⁷ /M/s
- Ki [7]: > 50 µM
Structure (SMILES): CC[C@H](C)[C@@H]1NC(=O)[C@@H]2CCCN2C(=O)[C@@H]2CCCN2C(=O)[C@H](CCCCN)NC(=O)[C@H](CO)NC(=O)[C@H](CCCCN)NC(=O)[C@H](Cc2ccc(O)cc2)NC(=O)[C@@H]2CSSC[C@H](NC1=O)C(=O)N[C@@H](Cc1ccccc1)C(=O)N1CCC[C@H]1C(=O)N[C@@H](CC(=O)O)C(=O)NCC(=O)N[C@@H](CCCNC(=N)N)C(=O)N2 (HELM PEPTIDE1{C.F.P.D.G.R.C.Y.K.S.K.P.P.I}$PEPTIDE1,PEPTIDE1,1:R3-7:R3|PEPTIDE1,PEPTIDE1,1:R1-14:R2$$$V2.0)
